Key:
PBMCs [1] = assay: VPD450 proliferation test (flow cytometry) on PBMCs; type: cell-based, human; details: for EC50: Homo sapiens, PBMC, PBMCs stimulated with anti-CD3/anti-CD28 beads, 72 h, mean ± SD; for SI selectivity index PBMCs (IC50/EC50): ratio between IC50 (XTT) and EC50 (VPD450) on PBMCs
Procedure: (§1) These values indicate the concentration of any compound at which proliferation of PBMCs (healthy cells), and T-Jurkat cells (T-cell leukemia), is inhibited by 50% compared to the control. Cells were treated with the compounds for 72 h (PBMCs) or 48 h (T-Jurkat), followed by a […] VPD450 test. The results are presented in ESI Fig. S3 as proliferation curves concerning concentration.
(§2) ESI Figure 3. Concentration-dependent change in proliferation under the treatment of ester derivatives of MPA. (A) VPD450-labelled PBMCs were cultured in the presence of different concentrations (100; 50; 25; 10; 1; 0.1, and 0.01 μM) of MPA, MMF, and ester derivatives, and stimulated with magnetic beads coated with anti-CD3 and anti-CD28 antibodies for 72 hours. (B) VPD450-labelled T-Jurkat cells were cultured in the presence of different concentrations (100; 10; 1; 0.1 and 0.01 μM) of MPA and ester derivatives for 48 hours. The plots were separated based on the type of ester derivative (P or MP). Cell proliferation was analyzed using flow cytometry. The results are expressed […]
(§3) (1 picture or pasted object on this page, not shown here) […]
(§4) inhibited cell viability by more than 50%. Each experiment was conducted in triplicate, and the final […]
(§5) VPD450 dye-based in vitro cell proliferation test
(§6) PBMCs and T-Jurkat cells were washed twice with warm PBS (37°C), re-suspended in fresh PBS at a final concentration of 10-30∙10^6 cells/ml, and labelled with 1 µl of VPD450 (BD Biosciences) at 37°C for 15 minutes, with vortexing every 5 minutes to ensure uniform staining. Subsequently, cells were washed with PBS, then with the complete medium (X-VIVO20 for PBMCs and RPMI-1640 for T-Jurkat cells), next re-suspended in fresh complete medium and seeded into 96-well plates at a concentration of 1∙10^6 cells per well. PBMCs were additionally stimulated with magnetic beads coated with anti-CD3 and anti-CD28 antibodies (Invitrogen) at a 2:1 cell-to-bead ratio. To the experimental wells, 100 µl of the MPA derivatives were added to achieve final concentrations of 50, 25, 10, 5, 1, 0.1, and 0.01 µM. In parallel, control wells containing stained but unstimulated cells and stained, stimulated cells were prepared at the same concentration. Cell proliferation was analyzed using an LSRFortessa flow cytometer (BD Biosciences) and Kaluza C Flow Cytometry Analysis Software (Beckman Coulter). […]
(§7) Statistical analysis was conducted using GraphPad Prism 9 (GraphPad Software Inc).
(§8) Differences between MMF, MPA and its new derivatives were assessed using a two-tailed unpaired Student’s t-test, with statistical significance defined as p < 0.05. EC50 and IC50 values were determined by fitting data to a four-parameter non-linear regression model in GraphPad Prism 9. Statistical significance was evaluated using the t-test.

T-Jurkat cells [2] = assay: VPD450 proliferation test (flow cytometry) on T-Jurkat cells; type: cell-based, human; details: for EC50: Homo sapiens, T-Jurkat, 48 h, mean ± SD; for IS internal selectivity (EC50 PBMCs / EC50 T-Jurkat): ratio between VPD450 EC50 values for PBMCs and T-Jurkat cell line
Procedure: as §1, §2, §3, §4, §5, §6, §7, §8

PBMCs [3] = assay: XTT cytotoxicity test on PBMCs; type: cell-based; details: Homo sapiens, PBMC, 72 h (ESI: 96 h), viability, mean ± SD, read-out: Relative IC50 PBMCs (XTT)
Procedure: (§9) Table 3 presents the IC50 values obtained from the XTT test on PBMCs and the T-Jurkat cell line, using MPA and MMF as standards. These values indicate the concentration of each compound required to reduce the viability of PBMCs (healthy cells) and T-Jurkat cells (T-cell leukemia) by 50% compared to the control. Cells were treated with compounds for 72 h (PBMCs) or 48 h (T-Jurkat), followed by a colorimetric XTT test. The results are illustrated in ESI Fig. S2 as a viability curve in relation to concentration.
Biological evaluation — PBMC and T-Jurkat cells […]
(§10) Human peripheral blood mononuclear cells (PBMCs) were isolated from buffy coats provided by anonymous, healthy volunteers with an average age of 35±4 years during routine transfusion procedure. These samples were received by the Authors from the Regional Centre for Blood Donation and Treatment in Gdańsk (Poland). […]
(§11) solely for PBMCs isolation. PBMCs were suspended in a complete X-VIVO medium, consisting of X-VIVO20, 10% heat-inactivated human AB serum, penicillin (100 U/ml), and streptomycin ([…]).
(§12) MPA derivatives preparation
(§13) To achieve the desired concentrations of the tested compounds, the substances were first dissolved in DMSO to reach a final concentration of 0.01 M. The solutions were then diluted in the appropriate additive-free medium (RPMI-1640 for T-Jurkat cells and X-VIVO20 for PBMCs) to obtain […]
(§14) Peripheral blood mononuclear cells were isolated by gradient centrifugation, as described previously. Buffy coats were diluted with phosphate-buffered saline (PBS, pH = 7.4, ThermoFisher Scientific) in a 1:1 ratio, layered at Ficoll-Paque™ PLUS (VWR International), and centrifuged at 800 × g for 20 minutes. The PBMC layer was collected and washed twice with PBS (1st wash: 600 × g for 10 minutes; 2nd wash: 600 × g for 5 minutes). Cell amount and viability were assessed using the Bio-Rad TC20™ automated cell counter combined with trypan blue staining.
(§15) XTT dye-based in vitro cytotoxicity test
(§16) The cytotoxic effects of mycophenolic acid (MPA) derivatives were assessed using an in vitro XTT-based assay (Roche). PBMCs in complete X-VIVO20 medium and T-Jurkat cells in complete RPMI-1640 medium were seeded into 96-well plates at a concentration of 5∙10^5 cells/50 µl per well. 50 µl of tested compounds were added to the experimental wells to achieve final concentrations of 50, 25, 10, 5, 1, 0.1, and 0.01 µM. The background control consisted of the medium without cells, while untreated cells served as the positive control. After incubating for 48 hours for T-Jurkat cells and 96 hours for PBMCs in a humidified atmosphere with 5% CO2 at 37°C, 50 µl of freshly prepared XTT reagent was added to all wells according to the manufacturer's instructions. The plates were then incubated for an additional 24 hours under the same conditions. The conversion of the water-soluble yellow XTT tetrazolium salt to orange formazan was quantified by measuring the optical density (OD) at 450 nm using an Agilent BioTek Epoch Microplate Spectrophotometer (Agilent Technologies), with a reference wavelength of 690 nm. The results were expressed as IC50 values for compounds that […]
(§17) inhibited cell viability by more than 50%. […]
PBMCs were suspended in a 15 mL centrifuge tube at a concentration of 10-30 × 10⁶ cells in 1 mL of PBS, then, 2 μL of 1 mM VPD 450 dye solution was added, incubated for 15 min at 37°C, washed with a 9-fold volume of warm PBS and centrifuged at 400 x g for 5 min. Then, the cells were suspended in 10 mL of X-VIVO medium with 10% FBS and centrifuged again at 400 x g for 5 min. After suspending the cells in the complete medium, the staining level was checked using flow cytometry. The cells thus obtained were stimulated with anti-CD3/anti-CD28 antibodies as described previously (see VPD450 dye-based in vitro cell proliferation test). To perform the GMP test, a proper amount of GMP was added to each well to reach its final concentration of 50 μM, and then incubated for 72 hours. Proliferative […]

[4] = DPPH radical scavenging test (colorimetric); details: concentration scavenging 50% of DPPH radicals; 10 min, room temperature, 517 nm; mean ± SD
Procedure: Antioxidative properties of the obtained MPA derivatives were assessed chemically using a colorimetric DPPH test. The IC50 value represents the scavenging activity, defined as the concentration of a compound required to scavenge 50% of DPPH radicals.
Briefly, 400 µL solution of each synthesized compound with different concentrations (20–1000 µg/mL) was added to 1.6 mL DPPH solution (100 µmol/L). After shaking, the mixture was incubated at room temperature in the dark for 10 min, and then the absorbance was measured at 517 nm. The %Scavenging activity was calculated by using the formula: […]
The scavenging activity was expressed as IC50 value, defined as the concentration (mM) of compound required for scavenging DPPH radicals by 50%. IC50 values were determined by linear regression analysis using at least three different concentrations in duplicate.
Three different concentrations were prepared for each sample, while each one was analyzed in duplicate. […] The statistical analysis was performed using Tukey’s HSD test (p < 0.05). The statistical software Statistica 10 software (StatSoft Inc., Tulsa, OK, USA) was implemented for this analysis.

T-Jurkat cells [5] = assay: XTT cytotoxicity test on T-Jurkat cell line; type: cell-based, human
Procedure: as §9
Biological evaluation — PBMC and T-Jurkat cells
The T-Jurkat cell line (Clone E6-1, ATCC TIB-152), derived from a human acute T-cell leukemia, was obtained from the cell bank of the Department of Medical Immunology at the Medical University of Gdańsk. Before experimentation, the cells were thawed and cultured for about 7 days to reach the logarithmic phase of growth. The T-Jurkat cell line was suspended in a complete RPMI medium, which included RPMI-1640, 10% FBS, penicillin (100 U/ml), and streptomycin ([…]).
as §10, §11, §12, §13, §14, §15, §16, §17
PBMCs were suspended in a 15 mL centrifuge tube at a concentration of 10-30 × 10⁶ cells in 1 mL of PBS, then, 2 μL of 1 mM VPD 450 dye solution was added, incubated for 15 min at 37°C, washed with a 9-fold volume of warm PBS and centrifuged at 400 x g for 5 min. Then, the cells were suspended […]

Row | EC50 (T-Jurkat cells [2]) | IS internal selectivity (EC50 PBMCs / EC50 T-Jurkat) (T-Jurkat cells [2]) | IC50 [4] | SMILES | EC50 (PBMCs [1]) | SI selectivity index PBMCs (IC50/EC50) (PBMCs [1]) | IC50 (PBMCs [3]) | SI selectivity index T-Jurkat (IC50/EC50) (T-Jurkat cells [2]; ratio between IC50 (XTT) and EC50 (VPD450) on T-Jurkat cell line) | IC50 (T-Jurkat cells [5]; Homo sapiens, T-Jurkat, 48 h, viability, mean ± SD, read-out: Relative IC50 T-Jurkat (XTT)) | IS internal selectivity (IC50 PBMCs / IC50 T-Jurkat) (T-Jurkat cells [5]; ratio between XTT IC50 values for PBMCs and T-Jurkat cell line)
1 | 2.84 ± 0.033 µM | 0.780 | 35800 ± 403 µM | COc1c(C)c2c(c(O)c1C/C=C(\C)CCC(=O)Oc1ccc(/C=C/C(C)=O)cc1)C(=O)OC2 [P6] | 2.215 ± 0.004 µM | 3.989 | 8.836 ± 0.02 µM | – | – | –
2 | – | – | 545 µM | O=C1O[C@H]([C@@H](O)CO)C(O)=C1O [Ascorbic acid, reference compound] | – | – | – | – | – | –
3 | 1.08 ± 0.036 µM | 10.542 | – | COc1cc(/C=C/C(C)=O)ccc1OC(=O)CC/C(C)=C/Cc1c(O)c2c(c(C)c1OC)COC2=O [MP5] | 11.406 ± 0.003 µM | 2.691 | 30.698 ± 0.024 µM | 2.149 | 2.325 ± 0.004 µM | 13.203
4 | 1.34 ± 0.035 µM | – | 20100 ± 258 µM | C=C[C@@](C)(/C=C/c1ccc(OC(=O)CC/C(C)=C/Cc2c(O)c3c(c(C)c2OC)COC3=O)cc1)CCC=C(C)C [P3] | 1.052 ± 0.004 µM | 13.419 | 14.117 ± 0.007 µM | – | – | –
5 | – | – | 8 µM | Cc1c(C)c2c(c(C)c1O)CCC(C)(C(=O)O)O2 (stereo not drawn) [Trolox, reference compound] | – | – | – | – | – | –
6 | 0.662 ± 0.031 µM | 1.755 | 14900 ± 340 µM | COc1cc(CCC(C)=O)ccc1OC(=O)CC/C(C)=C/Cc1c(O)c2c(c(C)c1OC)COC2=O [MP6] | 1.162 ± 0.003 µM | 12.664 | 14.71 ± 0.045 µM | – | – | –
